# Paper PMC10315472 (Frontiers in Microbiology, 2023)
# Read-outs that look alike come from different tables or passages of the source. Positions of bridges follow the written chain, without caps; N, C: chain ends. Residues, ends and D or L forms follow the SMILES beside them.
# Key:
# [1] = target: T1, WT RBD (Severe acute respiratory syndrome coronavirus 2, UniProt P0DTC2); assay: biochemical; assay type: binding, SARS-CoV-2
# [2] = covalently immobilized onto CM5 via amine groups
# [3] = target: T1, WT RBD; assay: biochemical; assay type: binding, SARS-CoV-2; remark: listed apart in the source
Compound,Kd [1] [nM],koff [1] [s⁻¹],kon [1] [M⁻¹ s⁻¹],stability on CM5 chip [2],Kd [3] [nM]
"CC[C@H](C)[C@@H]1NC(=O)CNC(=O)[C@H](CCCCN)NC(=O)[C@@H]2CSSC[C@@H](C(=O)N[C@@H](Cc3ccc(O)cc3)C(=O)O)NC(=O)[C@H](CCCCN)NC(=O)[C@@H]3CSSC[C@H](NC(=O)[C@H](CCCNC(=N)N)NC(=O)[C@H](CO)NC(=O)[C@H](CC(=O)O)NC(=O)[C@H](CC(N)=O)NC(=O)CNC(=O)CNC(=O)[C@H](Cc4ccccc4)NC(=O)[C@H]([C@@H](C)CC)NC(=O)[C@H]([C@@H](C)O)NC(=O)[C@@H](NC(=O)CNC(=O)[C@H](Cc4c[nH]c5ccccc45)NC(=O)CN)CSSC[C@H](NC(=O)[C@H](Cc4ccc(O)cc4)NC(=O)CNC(=O)CNC(=O)[C@H](CCCNC(=N)N)NC(=O)[C@H](Cc4ccc(O)cc4)NC(=O)CNC(=O)[C@H](CCCNC(=N)N)NC1=O)C(=O)N[C@@H](CCCCN)C(=O)N[C@@H](CC(C)C)C(=O)NCC(=O)NCC(=O)N[C@@H]([C@@H](C)CC)C(=O)N3)C(=O)N[C@@H](Cc1c[nH]cn1)C(=O)N[C@@H](CCCNC(=N)N)C(=O)N[C@@H](Cc1c[nH]cn1)C(=O)N2 [Emorisin] (H-GWGCTIFGGNDSRCHRHCKGIRGYRGGYCKLGGICKCY-OH; disulfide 4-29, 14-35, 18-37)",7.6,0.045,5.92e+06,–,–
"CC[C@H](C)[C@@H]1NC(=O)[C@H](CCCCN)NC(=O)CNC(=O)[C@H](CCCNC(=N)N)NC(=O)[C@@H]2CSSC[C@H](NC(=O)CNC(=O)[C@H](Cc3ccccc3)NC(=O)CN)C(=O)N3CCC[C@H]3C(=O)N[C@@H](Cc3c[nH]c4ccccc34)C(=O)N[C@@H](CC(N)=O)C(=O)N[C@@H](C)C(=O)N[C@@H](Cc3ccc(O)cc3)C(=O)N[C@@H](CCC(=O)O)C(=O)N[C@H]3CSSC[C@H](NC(=O)[C@H]([C@@H](C)O)NC(=O)[C@H](CCC(N)=O)NC(=O)[C@H](CCCNC(=N)N)NC1=O)C(=O)N[C@@H](Cc1c[nH]cn1)C(=O)N[C@H](C(=O)N[C@@H](Cc1ccc(O)cc1)C(=O)O)CSSC[C@H](NC(=O)[C@H](Cc1c[nH]cn1)NC(=O)[C@H](CCCNC(=N)N)NC(=O)[C@H](CC(=O)O)NC3=O)C(=O)N[C@@H](C(C)C)C(=O)N[C@@H](CO)C(=O)N[C@@H](CCCCN)C(=O)NCC(=O)N[C@@H](Cc1ccc(O)cc1)C(=O)N[C@@H]([C@@H](C)O)C(=O)NCC(=O)NCC(=O)N[C@@H](CC(N)=O)C(=O)N2 [AMSIN] (H-GFGCPWNAYECDRHCVSKGYTGGNCRGKIRQTCHCY-OH; disulfide 4-25, 11-33, 15-35)",193,0.00219,11300,rather stable,–
"CC[C@H](C)[C@@H]1NC(=O)[C@H](CCCCN)NC(=O)CNC(=O)[C@H](CCCNC(=N)N)NC(=O)[C@@H]2CSSC[C@H](N)C(=O)N3CCC[C@H]3C(=O)N[C@@H](Cc3c[nH]c4ccccc34)C(=O)N[C@@H](CC(N)=O)C(=O)N[C@@H](C)C(=O)N[C@@H](Cc3ccc(O)cc3)C(=O)N[C@@H](CCC(=O)O)C(=O)N[C@H]3CSSC[C@H](NC(=O)[C@H]([C@@H](C)O)NC(=O)[C@H](CCC(N)=O)NC(=O)[C@H](CCCNC(=N)N)NC1=O)C(=O)N[C@@H](Cc1c[nH]cn1)C(=O)N[C@H](C(=O)N[C@@H](Cc1ccc(O)cc1)C(=O)O)CSSC[C@H](NC(=O)[C@H](Cc1c[nH]cn1)NC(=O)[C@H](CCCNC(=N)N)NC(=O)[C@H](CC(=O)O)NC3=O)C(=O)N[C@@H](C(C)C)C(=O)N[C@@H](CO)C(=O)N[C@@H](CCCCN)C(=O)NCC(=O)N[C@@H](Cc1ccc(O)cc1)C(=O)N[C@@H]([C@@H](C)O)C(=O)NCC(=O)NCC(=O)N[C@@H](CC(N)=O)C(=O)N2 [(ΔGFG)AMSIN] (H-CPWNAYECDRHCVSKGYTGGNCRGKIRQTCHCY-OH; disulfide 1-22, 8-30, 12-32)",–,–,–,–,119
